What was measured:
[1] = target: human STING protein (140-379), WT (Homo sapiens, UniProt Q86WV6, H232R); test: Radiometric filtration binding competition assay (FBA), hSTING-WT; conditions: WT-hSWAT IC50 (μM), WT_FBA_HIS-SUMO-hSWAT; wild-type human STING; competition with [H3] 2′3′cGAMP
[2] = tested on: STING protein; IRF/IFN signaling in THP-1 R232 cells; test: Cell based reporter assay, THP-1 R232 IRF-luc; conditions: Homo sapiens, THP1-dual-KI R232 cells, IRF luciferase reporter; for Emax: maximum measured activity, read-out: THP 1-dual-KI R232_IRF(Luciferase)_Activity Maximum measured (%); for IC50: read-out: THP 1-dual-KI R232_IRF(Luciferase) IC50
Text: Cell reporter assays were developed to measure the ability of compounds of the application to activate the STING protein and activate both IRF/IFN and the NFkB signaling pathways in the myeloid derived cell line THP-1, which is commercially available from several suppliers. Briefly, THP-1 monocytes were transfected and selected for stable integration of 2 reporter constructs. Clones incorporating stably integrated vectors were further selected by antibiotic resistance to blastocidin and zeocin. The reporter constructs included: (1) firefly luciferase reporter gene under the control of an ISG54 promoter fused to five interferon (IFN)-stimulated response elements to measure IRF transcription factor binding activity and (2) secreted embryonic alkaline phosphatase reporter gene under transcription control of an IFN-beta minimal promoter fused to 5 copies of the NFkB consensus transcriptional response element and 3 copies of the c-Rel binding site.
The resulting THP-1 cell line was further modified to incorporate 3 amino acid point mutations (H71R A230G Q293R). This modification of the native TMEM173 gene in THP-1 cells (HAQ) was designed to produce a cell reporter that expressed the most common allelic variant in the human population (THP-1 R232, available from InvivoGen). Alternatively, the TMEM173 gene was knocked out to provide a congenic control to counter-screen for compound activation that was independent of the STING protein (THP-1 STING KO).
Once cell lines were established, reporter assay protocols were developed and optimized to screen small molecule compounds for agonist activity. Assay optimization for efficacy and Z′ value included titration of the following parameters:
• 1. Cell pre-activation with PMA • 2. Cell seeding density • 3. DMSO tolerance • 4. Media selection • 5. FBS concentration • 6. Incubation time • 7. Co-Assessment of cell viability by CTG assay • 8. Appropriate HPE and ZPE controls • 9. Dose Response Titration
• 1. No pre-activation with PMA • 2. 5×10^4 cells/well in 96 well plate format • 3. <0.5% DMSO • 4. RPMI 1640+2.5 mg/ml glucose • 5. 10% FBS • 6. 14-18 hr incubation • 7. Cell Titer Glo reagent (Promega) following supernatant removal • 8. […] 8 point, 2 fold, duplicate starting at 150 μM

[3] = target: T1, mouse STING protein (139-328) (Mus musculus, UniProt Q3TBT3); test: Radiometric filtration binding competition assay (FBA), mSTING
T1 sequence (Q3TBT3 139-328): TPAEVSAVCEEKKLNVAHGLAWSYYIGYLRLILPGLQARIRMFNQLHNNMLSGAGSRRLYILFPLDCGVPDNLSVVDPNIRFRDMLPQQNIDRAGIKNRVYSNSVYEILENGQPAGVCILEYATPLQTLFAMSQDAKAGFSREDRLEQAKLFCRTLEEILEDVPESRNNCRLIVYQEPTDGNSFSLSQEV

[4] = target: hSTING-R232 (aa140-379) (Homo sapiens, UniProt Q86WV6, H232R); test: STING differential scanning fluorimetry (DSF) assay, hSTING WT; conditions: shift in melting temperature apo vs ligand-bound
hSTING-R232 (aa140-379), sequence (Q86WV6 140-379 H232R): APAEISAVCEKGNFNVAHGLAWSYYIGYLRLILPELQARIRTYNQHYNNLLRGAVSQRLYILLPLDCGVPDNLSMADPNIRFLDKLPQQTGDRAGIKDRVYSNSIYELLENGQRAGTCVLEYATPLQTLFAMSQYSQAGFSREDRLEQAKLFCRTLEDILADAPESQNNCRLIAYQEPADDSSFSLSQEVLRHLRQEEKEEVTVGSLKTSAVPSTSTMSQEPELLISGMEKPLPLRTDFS
Experimental: A STING DSF assay was performed to determine protein thermostability shift in response to small molecule ligand binding. A STING thermnostability shift assay based on differential scanning fluorimetry was used to measure (1) the net shift in melting temperature (ΔTm) between the apo and ligand-bound states of the STING protein and (2) the concentration of the thermal denaturation transition (EC50) as a surrogate measure of binding affinity (Kd). […] Protein in assay buffer was transferred to a 384 well plate and incubated with the hydrophobic fluorescent dye SYBR Orange. A temperature ramp was applied to the plate and the resulting dye fluorescence was plotted as a function of temperature. The first derivative of this function (dF/dT) was then used to extrapolate the melting temperature of the protein at various concentrations of compound and determine the thermal denaturation profile of a protein/compound complex.
5 μM purified Target STING Protein • 3. 8 μM Sypro Orange Dye • 4. Buffer: 100 mM NaCl, 30 mM HEPES, pH 7.5 • 5. Thermal Ramp: 0.5° C./min • 6. <1% DMSO • 7. 11 point, 2 fold dilution, duplicate, 300 μM high concentrations • 8.

human STING protein (140-379), WT, sequence (Q86WV6 140-379 H232R): as above

| Compound | IC50 [1] [µM] | Emax [2] [%] | IC50 [2] [µM] | IC50 [3] [µM] | WT_DSF_hSWAT Tm Shift (° C.) [4] |
| --- | --- | --- | --- | --- | --- |
| Cc1ccccc1-c1c(Cl)ccc2c(=O)c3ccccc3n(CC(=O)O)c12 [Compound 59] | 20 to 100 | 5 to 25 | 50 to 100 | > 300 | B (“B” = 0-2° C.) |
| Cc1ccc2c(=O)c3ccc(Cl)c(N4CCCC4)c3n(CC(=O)O)c2c1 [Compound 64] | 20 to 100 | > 50 | < 50 | 20 to 100 | D (“D” >7° C.) |
| CN(C)c1c(Cl)ccc2c(=O)c3ccc(-c4ccco4)cc3n(CC(=O)NS(C)(=O)=O)c12 [Compound 56] | < 20 | – | > 150 | – | D (“D” >7° C.) |
| CN(C)c1c(Cl)ccc2c(=O)c3ccc(C(C)(C)C)cc3n(CC(=O)NS(C)(=O)=O)c12 [Compound 57] | < 20 | > 50 | < 50 | < 20 | D (“D” >7° C.) |
| COc1c(Cl)ccc2c(=O)c3ccc(C4CCN(C)CC4)cc3n(CC(=O)O)c12 [Compound 53] | 100 to 300 | 5 to 25 | > 150 | – | C (“C” = 2-7° C.) |
| C=C(C)c1c(Cl)ccc2c(=O)c3ccc(C)cc3n(CC(=O)O)c12 [Compound 47] | < 20 | > 50 | < 50 | – | D (“D” >7° C.) |
| O=C(O)Cn1c2ccccc2c(=O)c2ccc(Cl)c(O)c21 [Compound 63] | 20 to 100 | < 5 | > 150 | – | B (“B” = 0-2° C.) |
| CN(C)c1c(Cl)ccc2c(=O)c3ccc(Nc4c(F)cccc4F)cc3n(CC(=O)O)c12 [Compound 92] | < 20 | > 50 | < 50 | – | D (“D” >7° C.) |
| CN(C)c1c(Cl)ccc2c(=O)c3ccc(-n4cccc4)cc3n(CC(=O)O)c12 [Compound 7] | < 20 | > 50 | < 50 | – | D (“D” >7° C.) |
| O=C(O)Cn1c2ccccc2c(=O)c2ccc(Cl)c(-c3cccs3)c21 [Compound 62] | 20 to 100 | 25 to 50 | > 150 | 20 to 100 | D (“D” >7° C.) |
| CN(C)c1c(Cl)ccc2c(=O)c3ccc(-c4ccn(C(=O)OC(C)(C)C)c4)cc3n(CC(=O)O)c12 [Compound 17] | < 20 | > 50 | < 50 | – | D (“D” >7° C.) |
| C=C(C)c1ccc2c(=O)c3ccc(Cl)c(N(C)C)c3n(CC(=O)O)c2c1 [Compound 24] | < 20 | > 50 | < 50 | – | D (“D” >7° C.) |
| CN(C)c1c(Cl)ccc2c(=O)c3ccc(Br)cc3n(CC(=O)O)c12 [Compound 20] | < 20 | > 50 | < 50 | – | D (“D” >7° C.) |
| CN(C)c1c(Cl)ccc2c(=O)c3ccc(-c4ccncc4)cc3n(CC(=O)O)c12 [Compound 8] | < 20 | > 50 | < 50 | – | D (“D” >7° C.) |
| CN(C)c1c(Cl)ccc2c(=O)c3ccc(-n4ccnc4)cc3n(CC(=O)O)c12 [Compound 5] | 20 to 100 | > 50 | < 50 | – | C (“C” = 2-7° C.) |
| COc1cc2c(=O)c3ccc(Cl)c(N(C)C)c3n(CC(=O)O)c2cc1OC [Compound 1] | < 20 | 5 to 25 | > 150 | – | B (“B” = 0-2° C.) |
| C=Cc1cc2c(cc1Cl)c(=O)c1ccc(Cl)c(N(C)C)c1n2CC(=O)O [Compound 89] | < 20 | > 50 | < 50 | – | D (“D” >7° C.) |
| CC(C)Nc1cc2c(cc1Cl)c(=O)c1ccc(Cl)c(N(C)C)c1n2CC(=O)O [Compound 86] | < 20 | > 50 | < 50 | – | D (“D” >7° C.) |
| CN(C)c1c(Cl)ccc2c(=O)c3cc(-c4ccccc4)ccc3n(CC(=O)O)c12 [Compound 30] | < 20 | 25 to 50 | < 50 | – | D (“D” >7° C.) |
| CC(C)c1ccc2c(=O)c3ccc(Cl)c(N(C)C)c3n(CC(=O)O)c2c1 [Compound 58] | < 20 | > 50 | < 50 | – | D (“D” >7° C.) |
| COCCOc1cccc2c(=O)c3ccc(Cl)c(OC)c3n(CC(=O)O)c12 [Compound 60] | > 300 | 5 to 25 | > 150 | – | B (“B” = 0-2° C.) |
| Cc1ccc2c(=O)c3ccc(C(C)(C)C)cc3n(CC(=O)O)c2c1N(C)C [Compound 39] | < 20 | > 50 | < 50 | – | D (“D” >7° C.) |
| CN(C)c1c(Cl)ccc2c(=O)c3ccc(C4=CCCCC4)cc3n(CC(=O)O)c12 [Compound 23] | < 20 | > 50 | < 50 | – | D (“D” >7° C.) |

From patent publication US20220227761A1, “OXOACRIDINYL ACETIC ACID DERIVATIVES AND METHODS OF USE” (STINGTHERA, INC., priority 2019, published 2022)
